Measured values taken from patent publication US8802700B2 (Vertex Pharmaceuticals Incorporated, priority 2010, dated 2014).

Molecular target: T1, ΔF508-CFTR (Homo sapiens, UniProt P13569, DEL508-508)
T1 construct: expressed in transfected cells
Assay: Membrane potential optical assay (FRET voltage-sensor dyes, VIPR), identification of potentiator compounds
Format: cell-based
Settings: Table 3; assay not given
Description: The optical membrane potential assay utilized voltage-sensitive FRET sensors described by Gonzalez and Tsien (See Gonzalez, J. E. and R. Y. Tsien (1995) “Voltage sensing by fluorescence resonance energy transfer in single cells” Biophys J 69(4): 1272-80, and Gonzalez, J. E. and R. Y. Tsien (1997) “Improved indicators of cell membrane potential that use fluorescence resonance energy transfer” Chem Biol 4(4): 269-77) in combination with instrumentation for measuring fluorescence changes such as the Voltage/Ion Probe Reader (VIPR) (See […]. Oades, et al. (1999) “Cell-based assays and instrumentation for screening ion-channel targets” Drug Discov Today 4(9): 431-439). These voltage sensitive assays are based on the change in fluorescence resonant energy transfer (FRET) between the membrane-soluble, voltage-sensitive dye, DiSBAC2(3), and a fluorescent phospholipid, CC2-DMPE, which is attached to the outer leaflet of the plasma membrane and acts as a FRET donor. Changes in membrane potential (Vm) cause the negatively charged DiSBAC2(3) to redistribute across the plasma membrane and the amount of energy transfer from CC2-DMPE changes accordingly. The changes in fluorescence emission were monitored using VIPRTM II, which is an integrated liquid handler and fluorescent detector designed to conduct cell-based screens in 96- or 384-well microtiter plates. To identify potentiators of ΔF508-CFTR, a double-addition HTS assay format was developed. During the first addition, a Cl^--free medium with or without test compound was added to each well. […] (in mM) NaCl 160, KCl 4.5, CaCl2 2, MgCl2 1, HEPES 10, pH 7.4 with NaOH. • Chloride-free bath solution: Chloride salts in Bath Solution #1 are substituted with gluconate salts. • CC2-DMPE: Prepared as a 10 mM stock solution in DMSO and stored at -20° C. • DiSBAC2(3): Prepared as a 10 mM stock in DMSO and stored at -20° C. NIH3T3 mouse fibroblasts stably expressing ΔF508-CFTR are used for optical measurements of membrane potential. […] For all optical assays, the cells were seeded at 30,000/well in 384-well matrigel-coated plates and cultured for 2 hrs at 37° C. before culturing at 27° C. for 24 hrs. for the potentiator assay.

T1 sequence (P13569 with tags, fused parts or gaps DEL508-508): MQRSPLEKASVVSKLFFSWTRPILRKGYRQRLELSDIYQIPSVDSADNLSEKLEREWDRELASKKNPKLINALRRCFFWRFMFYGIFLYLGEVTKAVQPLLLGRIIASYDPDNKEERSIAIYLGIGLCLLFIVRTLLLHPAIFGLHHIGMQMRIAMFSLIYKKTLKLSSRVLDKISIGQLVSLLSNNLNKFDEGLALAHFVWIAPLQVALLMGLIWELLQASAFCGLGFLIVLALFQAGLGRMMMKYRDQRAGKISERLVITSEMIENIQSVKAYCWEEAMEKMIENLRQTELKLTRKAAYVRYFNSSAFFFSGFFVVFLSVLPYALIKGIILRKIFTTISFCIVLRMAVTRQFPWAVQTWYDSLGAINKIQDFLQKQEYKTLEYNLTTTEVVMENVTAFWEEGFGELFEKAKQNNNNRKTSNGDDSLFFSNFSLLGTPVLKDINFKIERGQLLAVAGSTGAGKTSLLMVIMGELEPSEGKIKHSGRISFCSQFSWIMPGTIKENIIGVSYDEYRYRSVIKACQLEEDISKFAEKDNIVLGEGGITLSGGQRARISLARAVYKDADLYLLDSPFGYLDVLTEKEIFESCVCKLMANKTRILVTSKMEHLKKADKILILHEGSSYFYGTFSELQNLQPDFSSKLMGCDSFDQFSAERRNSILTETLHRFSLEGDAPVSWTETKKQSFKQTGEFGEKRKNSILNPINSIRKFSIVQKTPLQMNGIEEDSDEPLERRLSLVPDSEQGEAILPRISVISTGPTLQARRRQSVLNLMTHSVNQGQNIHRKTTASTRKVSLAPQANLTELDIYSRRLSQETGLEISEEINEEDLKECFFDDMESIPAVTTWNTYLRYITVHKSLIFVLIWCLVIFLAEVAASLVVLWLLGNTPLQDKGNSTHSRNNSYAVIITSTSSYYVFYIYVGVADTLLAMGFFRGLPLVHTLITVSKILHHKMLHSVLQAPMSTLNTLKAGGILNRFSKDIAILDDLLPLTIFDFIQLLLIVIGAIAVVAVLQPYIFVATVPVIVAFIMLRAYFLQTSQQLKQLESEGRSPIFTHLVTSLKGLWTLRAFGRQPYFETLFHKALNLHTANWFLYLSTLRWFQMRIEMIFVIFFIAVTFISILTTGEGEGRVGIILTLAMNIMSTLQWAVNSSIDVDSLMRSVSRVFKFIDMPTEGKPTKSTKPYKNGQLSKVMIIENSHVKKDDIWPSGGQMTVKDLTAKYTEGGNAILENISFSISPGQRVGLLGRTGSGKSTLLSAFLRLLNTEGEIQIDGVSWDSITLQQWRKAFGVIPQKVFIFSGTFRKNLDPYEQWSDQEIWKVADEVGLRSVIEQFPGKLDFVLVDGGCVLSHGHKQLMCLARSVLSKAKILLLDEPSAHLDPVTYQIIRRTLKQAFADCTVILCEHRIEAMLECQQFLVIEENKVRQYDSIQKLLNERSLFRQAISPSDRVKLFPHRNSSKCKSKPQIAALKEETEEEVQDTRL

EC50 [µM] | SMILES
< 10 | CCOC(=O)Nc1cc(NC(=O)c2c[nH]c3ccccc3c2=O)ccc1CC [Compound 298, [2-ethyl-5-[(4-oxo-1H-quinolin-3-yl)carbonylamino]phenyl]aminoformic acid ethyl ester]
10 to 25 | CC(=O)Nc1ccc(C(C)C)c(NC(=O)c2c[nH]c3ccccc3c2=O)c1 [Compound 243, N-(5-acetylamino-2-isopropyl-phenyl)-4-oxo-1H-quinoline-3-carboxamide]

Same assay, conditions: Table 3; assay not given; read-out: % Activity (% Efficacy, relative efficacy)

SMILES | Emax [%]
CC(C)c1ccc(NC(=O)c2c[nH]c3cccc(O)c3c2=O)cc1O [Compound 587, 5-hydroxy-N-(3-hydroxy-4-isopropyl-phenyl)-4-oxo-1H-quinoline-3-carboxamide] | 25 to 100
NCc1ccccc1-c1ccc(NC(=O)c2c[nH]c3ccccc3c2=O)cc1 [Compound 86, N-[4-[2-(aminomethyl)phenyl]phenyl]-4-oxo-1H-quinoline-3-carboxamide] | 25 to 100
Cc1cccc2[nH]cc(C(=O)Nc3ccc(OC4CCCC4)cc3C(F)(F)F)c(=O)c12 [Compound 595, N-[4-cyclopentoxy-2-(trifluoromethyl)phenyl]-5-methyl-4-oxo-1H-quinoline-3-carboxamide] | 25 to 100
CC(C)(CNC(=O)OCC1CCOC1)c1ccc(NC(=O)c2c[nH]c3ccccc3c2=O)cc1 (stereo not drawn) [Compound 396, [2-methyl-2-[4-[(4-oxo-1H-quinolin-3-yl)carbonylamino]phenyl]-propyl]aminoformic acid tetrahydrofuran-3-ylmethyl ester] | 25 to 100
O=C(Nc1ccc2c(c1)C(O)CCC2)c1c[nH]c2ccccc2c1=O (stereo not drawn) [Compound 200, 1,4-dihydro-N-(1,2,3,4-tetrahydro-1-hydroxynaphthalen-7-yl)-4-oxoquinoline-3-carboxamide] | 25 to 100
CN(C)c1ccc(-c2ccccc2NC(=O)c2c[nH]c3ccccc3c2=O)cc1 [Compound 12, N-[2-(4-dimethylaminophenyl)phenyl]-4-oxo-1H-quinoline-3-carboxamide] | 25 to 100
CCCCOC(=O)NCC(C)(C)c1ccc(NC(=O)c2c[nH]c3ccccc3c2=O)cc1 [Compound 460, [2-methyl-2-[4-[(4-oxo-1H-quinolin-3-yl)carbonylamino]phenyl]-propyl]aminoformic acid butyl ester] | 25 to 100
CC(C)n1cc(C(=O)Nc2ccccc2C(C)(C)C)c(=O)c2ccccc21 [Compound 473, 1-isopropyl-4-oxo-N-(2-tert-butylphenyl)-1H-quinoline-3-carboxamide] | 25 to 100
CC1(C)CCCN(c2ccc(NC(=O)c3c[nH]c4ccccc4c3=O)c(C(F)(F)F)c2)C1 [Compound 612, N-[4-(3,3-dimethyl-1-piperidyl)-2-(trifluoromethyl)phenyl]-4-oxo-1H-quinoline-3-carboxamide] | 25 to 100
CC(C)(C)c1ccc(NC(=O)c2c[nH]c3ccccc3c2=O)cc1S(N)(=O)=O [Compound 268, 4-oxo-N-(3-sulfamoyl-4-tert-butyl-phenyl)-1H-quinoline-3-carboxamide] | 25 to 100
O=C(Nc1ccccc1-c1cc(Cl)cc(Cl)c1)c1c[nH]c2ccccc2c1=O [Compound 367, N-[2-(3,5-dichlorophenyl)phenyl]-4-oxo-1H-quinoline-3-carboxamide] | 25 to 100
Nc1cc(NC(=O)c2c[nH]c3ccccc3c2=O)cc(C(F)(F)F)c1 [Compound 429, N-[3-amino-5-(trifluoromethyl)phenyl]-4-oxo-1H-quinoline-3-carboxamide] | 25 to 100
Cc1cccc2[nH]cc(C(=O)Nc3ccc(N4CC(F)(F)C[C@H]4C)cc3C(F)(F)F)c(=O)c12 [Compound 667, (R)-N-(4-(4,4-difluoro-2-methylpyrrolidin-1-yl)-2-(trifluoromethyl)phenyl)-5-methyl-4-oxo-1,4-dihydroquinoline-3-carboxamide] | 25 to 100
Nc1nc2ccc(NC(=O)c3c[nH]c4ccccc4c3=O)cc2s1 [Compound 671, N-(2-aminobenzothiazol-6-yl)-4-oxo-1H-quinoline-3-carboxamide] | 25 to 100
Cc1cccc2[nH]cc(C(=O)Nc3ccc(N4CC[C@H](F)C4)cc3C(F)(F)F)c(=O)c12 [Compound 626, (S)-N-(4-(3-fluoropyrrolidin-1-yl)-2-(trifluoromethyl)phenyl)-5-methyl-4-oxo-1,4-dihydroquinoline-3-carboxamide] | 25 to 100
CC(C)(C)OC(=O)N1CCc2ccc(NC(=O)c3c[nH]c4ccccc4c3=O)cc2C1 [Compound 107, 7-[(4-oxo-1H-quinolin-3-yl)carbonylamino]-1,2,3,4-tetrahydroisoquinoline-2-carboxylic acid tert-butyl ester] | 25 to 100
COc1ccc(Cl)cc1-c1cc2cc[nH]c2cc1NC(=O)c1c[nH]c2ccccc2c1=O [Compound 1, N-[5-(5-chloro-2-methoxy-phenyl)-1H-indol-6-yl]-4-oxo-1H-quinoline-3-carboxamide] | 25 to 100
CCOc1ccccc1-c1ccc(N)cc1NC(=O)c1c[nH]c2ccccc2c1=O [Compound 393, N-[5-amino-2-(2-ethoxyphenyl)-phenyl]-4-oxo-1H-quinoline-3-carboxamide] | 25 to 100

Second part, the molecule after the results:

Emax [%] | SMILES
25 to 100 | CCOc1ccccc1-c1ccc(CNC(=O)OC(C)(C)C)cc1NC(=O)c1c[nH]c2ccccc2c1=O [Compound 304, {2′-Ethoxy-2-[(4-oxo-1,4-dihydroquinoline-3-carbonyl)-amino]-biphenyl-4-ylmethyl}-carbamic acid tert-butyl ester]
25 to 100 | CC(C)(C)c1ccc(O)cc1NC(=O)c1c[nH]c2cccc(O)c2c1=O [Compound 609, 5-hydroxy-N-(5-hydroxy-2-tert-butyl-phenyl)-4-oxo-1H-quinoline-3-carboxamide]
25 to 100 | CC1(C)CNc2cc(NC(=O)c3c[nH]c4ccccc4c3=O)ccc21 [Compound 386, N-(3,3-dimethylindolin-6-yl)-4-oxo-1H-quinoline-3-carboxamide]
> 100 | CC(C)(C)c1ccc(O)cc1NC(=O)c1c[nH]c2ccccc2c1=O [Compound 662, N-(5-hydroxy-2-tert-butyl-phenyl)-4-oxo-1H-quinoline-3-carboxamide]
25 to 100 | COc1cc(NC(=O)c2c[nH]c3cccc(O)c3c2=O)cc(C(F)(F)F)c1 [Compound 502, 5-hydroxy-N-[3-methoxy-5-(trifluoromethyl)phenyl]-4-oxo-1H-quinoline-3-carboxamide]
25 to 100 | COc1ccc2[nH]cc(C(=O)Nc3ccc(N4CCC(C)(C)C4)cc3C(F)(F)F)c(=O)c2c1 [Compound 504, N-[4-(3,3-dimethylpyrrolidin-1-yl)-2-(trifluoromethyl)phenyl]-6-methoxy-4-oxo-1H-quinoline-3-carboxamide]
25 to 100 | COC(=O)c1cccc(-c2cc(C(C)(C)C)c(O)cc2NC(=O)c2c[nH]c3ccccc3c2=O)c1 [Compound 231, 3-[4-hydroxy-2-[(4-oxo-1H-quinolin-3-yl)carbonylamino]-5-tert-butyl-phenyl]benzoic acid methyl ester]
25 to 100 | O=C(Nc1ccc(N2CC[C@H](O)C2)cc1C(F)(F)F)c1c[nH]c2ccccc2c1=O [Compound 655, (S)-N-(4-(3-hydroxypyrrolidin-1-yl)-2-(trifluoromethyl)phenyl)-4-oxo-1,4-dihydroquinoline-3-carboxamide]
25 to 100 | CC(C)(C)c1cc2ccc(NC(=O)c3c[nH]c4ccccc4c3=O)cc2[nH]1 [Compound 320, 4-oxo-N-(2-tert-butyl-1H-indol-6-yl)-1H-quinoline-3-carboxamide]
25 to 100 | CCOC(=O)Nc1cc(NC(=O)c2c[nH]c3ccccc3c2=O)ccc1CC [Compound 298, [2-ethyl-5-[(4-oxo-1H-quinolin-3-yl)carbonylamino]phenyl]aminoformic acid ethyl ester]
25 to 100 | CC(=O)Nc1ccc(C(C)C)c(NC(=O)c2c[nH]c3ccccc3c2=O)c1 [Compound 243, N-(5-acetylamino-2-isopropyl-phenyl)-4-oxo-1H-quinoline-3-carboxamide]
25 to 100 | CS(=O)(=O)c1ccc(-c2ccccc2NC(=O)c2c[nH]c3ccccc3c2=O)cc1 [Compound 326, N-[2-(4-methylsulfonylphenyl)phenyl]-4-oxo-1H-quinoline-3-carboxamide]
25 to 100 | CCCc1ccccc1NC(=O)c1c[nH]c2ccccc2c1=O [Compound 16, 4-oxo-N-(2-propylphenyl)-1H-quinoline-3-carboxamide]
25 to 100 | CN(Cc1ccccc1NC(=O)c1c[nH]c2ccccc2c1=O)C1CCCCC1 [Compound 354, N-[2-[(cyclohexyl-methyl-amino)methyl]phenyl]-4-oxo-1H-quinoline-3-carboxamide]
25 to 100 | CC(C)(C)COC(=O)NCC(C)(C)c1ccc(NC(=O)c2c[nH]c3ccccc3c2=O)cc1 [Compound 341, [2-methyl-2-[4-[(4-oxo-1H-quinolin-3-yl)carbonylamino]phenyl]-propyl]aminoformic acid neopentyl ester]
25 to 100 | CCCCc1ccccc1NC(=O)c1c[nH]c2ccccc2c1=O [Compound 336, N-(2-butylphenyl)-4-oxo-1H-quinoline-3-carboxamide]
